Source: patent US20220267270A1, “STING MODULATORS, COMPOSITIONS, AND METHODS OF USE” (University of South Florida, priority 2019, published 2022)

Tests used:
[1] = system: STING-induced IRF3 expression; experiment: Competition of 335504 with agonist 2,3-cGAMP in THP-1 cells; assay type: cell-based, human
Description: FIG. 6 depicts the effect of various concentrations of 335504 and known agonist 2,3-cGAMP on luminescence measured from THP-1 monocytic leukemia cells. […] This effect, however, is not seen at higher concentrations due to the synergistic effect of the compounds on the IFN-β signaling pathway in these cells.

[2] = target: His-labeled STING (hSTING) (Homo sapiens, UniProt Q86WV6); experiment: Microscale thermophoresis (MST) binding assay; conditions: for direct binding to hSTING by MST: FIG. 4
Description: Nanotemper Monolith NT.115 labeled thermophoresis machine was used with standard treated capillary tubes using samples comprised of labeled protein and titrations of small molecule in 1×PBS. […] Detection of the protein was performed using the blue detection channel with LED excitation power set to 90% and MST set to high allowing 3 s prior to MST on to check for initial fluorescence differences, 25 s for thermophoresis, and 3 s for regeneration after MST off.

[3] = system: STING pathway (interferon stimulated genes, IRF3 promoter); experiment: Luciferase reporter assay in THP1-ISG-Lucia cells
Description: To maintain selection pressure, 10 μg/ml of blasticidin and 100 μg/ml of Zeocin™ was added to the growth medium every other passage.
For compounds, 10 mM stock solution in 100% DMSO was diluted 1:4 with ultrapure Milli Q water. For the positive control, 1 mM stock solution in 100% Milli Q H2O was diluted 3:1 with water. 50 μL of QUANTI-Luc™ luminesence assay reagent (Invivogen) was added after 18-24 h incubation period. Expression of Lucia luciferase was quantified by measuring luminescence from duplicate treatments. Data illustrated were average luminescence changes shown relative to DMSO-treated cells.
For compounds, 10 mM stock solution in 100% DMSO was diluted 1:4 with ultrapure Milli Q water. For the positive control, 1 mM stock solution in 100% Milli Q H2O was diluted 3:1 with water. 50 μL of QUANTI-Luc™ luminesence assay reagent (Invivogen, San Diego, Calif., USA) was added after 18-24 h incubation period. Expression of Lucia luciferase was quantified by measuring luminescence from duplicate treatments. Data illustrated are average luminescence changes shown relative to DMSO-treated cells. A Glowmax luminometer (Promega, Madison, Wis., USA) was used. QUANTI-Luc™ was prepared following the manufacturer's instructions. 10 μl of THP1-Dual™ KI-hSTING-R232 cell culture supernatant was pipetted into each well in a 96-well white (opaque) plate. 50 μl of QUANTI-Luc™ was added to each well. The measurement was then immediately taken using a 4 sec incubation time and integrating over 1 sec.
A luciferase assay utilizing monocytic leukemia THP-1 cells was carried out to determine the upregulation of the IRF3 promoter gene as a downstream indicator of STING pathway activation.
FIG. 4C depicts a plot of luminescence vs. log of concentration of a luciferase assay utilizing monocytic leukemia THP-1 cells that was carried out to determine the regulation of interferon stimulated genes (ISG).

[4] = target: His-tagged human STING CDN domain (Homo sapiens, UniProt Q86WV6); experiment: Surface Plasmon Resonance (SPR) binding; conditions: steady state
Description: SPR was employed for binding measurements using His-tagged human STING CDN domain. A GE Healthcare Biacore T200 was equipped with an Ni-NTA chip. […] The sensorgrams were analyzed using Biacore T200 Software 3.0 (GE Healthcare) and steady state was measured at 4 sec before injection stop, exported into Graphpad, and fit vs concentration using a one site specific binding model to calculate the apparent equilibrium dissociation constant (KD). Where appropriate, kinetics were measured using a 1:1 Langmuir binding model with Rmax set to local to obtain the association rate (Kon), dissociation (Koff), and the KD.

hSTING = hSTING (Homo sapiens, UniProt Q86WV6); conditions: native ligand, literature ITC value used for model validation; read-out: ITC binding energetics (KD); cited from earlier work
hSTING, sequence (Q86WV6 139-379 H232R limits assumed): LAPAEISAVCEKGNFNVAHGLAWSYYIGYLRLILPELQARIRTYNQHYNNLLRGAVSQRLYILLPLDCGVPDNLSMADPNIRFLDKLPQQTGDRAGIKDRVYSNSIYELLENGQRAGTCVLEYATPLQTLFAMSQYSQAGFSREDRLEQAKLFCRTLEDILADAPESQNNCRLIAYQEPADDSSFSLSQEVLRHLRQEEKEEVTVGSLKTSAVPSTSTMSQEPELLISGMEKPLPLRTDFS

His-labeled STING (hSTING), sequence (Q86WV6 153-340 H232R limits assumed): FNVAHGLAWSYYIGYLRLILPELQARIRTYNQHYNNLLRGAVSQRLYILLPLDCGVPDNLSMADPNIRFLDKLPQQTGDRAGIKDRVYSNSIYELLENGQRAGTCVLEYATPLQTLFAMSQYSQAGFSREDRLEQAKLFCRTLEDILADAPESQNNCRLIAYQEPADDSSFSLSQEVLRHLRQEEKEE
His-tagged human STING CDN domain, sequence (Q86WV6 153-340 H232R limits assumed): as above

| SMILES | IC50 ([1]; Homo sapiens, THP-1 monocytic leukemia cells, with agonist 2,3-cGAMP, FIG. 7) [µM] | competition with 2,3-cGAMP (luminescence) ([1]; single to double digit concentrations of 335504, FIG. 6) | direct binding to hSTING by MST [2] | Kd ([2]; rough initial estimate of binding affinity) [µM] | ISG output (luminescence) vs DMSO blank ([3]; 3 μM, FIG. 2) | effect on cells at higher concentrations ([3]; >20 μM, DMSO percentages increased) | EC50 ([3]; Homo sapiens, THP-1, read-out: luciferase assay EC50) [µM] | effect in luciferase assay compared to 2,3-cGAMP ([3]; THP-1 cells) | increase in Luciferase activity compared to the blank ([3]; THP-1 cells, FIG. 4) [%] | Kd [4] [µM] | Kd (hSTING) [µM] |
| --- | --- | --- | --- | --- | --- | --- | --- | --- | --- | --- | --- |
| Cc1c(Cl)cccc1Nc1ncccc1C(=O)OCC(O)CO (stereo not shown) [NSC 335504] | ~0.0048 | competition of the compound with 2,3cGAMP can be observed | bind to hSTING | 0.26 ± 0.066 | large increase in ISG output | appeared to cause cell death | 29 ± 1.6 | significantly lower | 50 | 0.43 ± 0.14 |  |
| Nc1nc2c(ncn2[C@@H]2O[C@@H]3COP(=O)(O)O[C@H]4[C@@H](O)[C@H](n5cnc6c(=O)[nH]c(N)nc65)O[C@@H]4COP(=O)(O)O[C@H]3[C@H]2O)c(=O)[nH]1 [c-di-GMP] |  |  | binds but with lesser affinity |  |  |  |  |  |  | 4.8 | 1.2 |
